Data taken from patent publication US20040110768A1, “Bombesin receptor antagonists” (priority 2000, published 2004).
Where a name gives a salt, the structure may show the parent alone.

Tests used:
[1] = tested on: Ovariectomised adult female Sprague Dawley rats; assay: Female rat sexual receptivity test (lordosis quotient); assay type: in vivo
Procedure: Ovariectomised adult female Sprague Dawley rats (180-200 g) were housed in groups of 6 in a reversed lighting system of 12 h light:dark (lights off 7.00-19.00 h). Two weeks after ovariectomy they were used for sexual activity tests. The experiments started at least 5 h into the dark period. Compound (1) was dissolved in PEG 200 vehicle and administered orally. Quinelorane dihydrochloride (LY 163,502, 6.25 μg/kg) was dissolved in water and administered s.c., as a positive control. Both compounds were administered in a 1-ml/kg volume. Forty eight hours before tests, the animals were primed with 5 μg oestradiol benzoate dissolved in corn oil and injected s.c. The females were placed with a series of vigorous male rats and subjected to 10 mounts. The lordotic response of the animal was recorded and expressed as a percentage of the mounts (i.e. lordosis quotient, LQ). […] Animals showing higher LQ were not included in the study. Each rat was tested prior to administration of the compound (1) and then tested similarly at 1 h and at 90 min post-injection of compound (1) or quinelorane respectively.

[2] = tested on: Ovariectomised adult female Sprague Dawley rats; assay: Female rat sexual proceptivity test; assay type: in vivo; conditions: for difference in the percentage of time spent investigating the male stimuli minus female stimuli / MED, difference in percentage of time spent investigating male minus female stimuli: 1 h before test
Procedure: Ovariectomised adult female Sprague Dawley rats (180-200 g) were housed in groups of 6 in a reversed lighting system of 12 h light:dark (lights off 7.00-19.00 h). Two weeks after ovariectomy they were used for sexual activity tests. Animals were Adapted to the apparatus (in the absence of stimuli animals) for 10 min on 2 Consecutive days prior to testing. The experiments started at least 5 h into the dark period. Tests were carried out in a circular arena of 90 cm diameter, surrounded by a 30 cm high wall. Two small cages with wire-mesh front (15×15 cm) are fixed into the wall such that the front of the cage is “flush” with the wall and the 2 cages are opposite each other. They contain two stimuli animals: an intact sexually experienced male and a receptive female (ovariectomised, primed with 5 μg oestradiol benzoate dissolved in corn oil and injected subcutaneously 48 h before the test and with 0.5 mg of progesterone 4 h before the test). Sexually naïve test and control animals were used. Forty eight hours before the tests, both the test and control animals were primed with 5 μg oestradiol benzoate. Test animals were treated with the above compound (1)(30-100 mg/kg) which was dissolved in PEG 200 vehicle and administered orally in a 1 ml/kg volume 1 h before each test. For animals used as positive controls, progesterone (0.5 mg/0.1 ml) was dissolved in corn oil and administered subcutaneously (s.c.), 4 h before the test. Test and control animals were introduced one at a time for 10-minute periods into the arena. During the 10-min test, the time that the test or positive control animal spent investigating each stimulus animal was noted. The arena was thoroughly cleaned between animals. The position of the male/female stimuli boxes was randomised between animals, in order to avoid place preference. The difference in the percentage of time spent investigating male minus female was calculated, out of the total time spent investigating stimuli animals.
Example 21 was repeated except that compound (1) (3-30 mg/kg) was dissolved in 0.5% methyl cellulose and was administered p.o. in a dosing volume of 3 ml/kg 1 h before tests. Progesterone (0.5 mg/0.1 ml) was dissolved in corn oil and administered s.c., 4 h before test, as a positive control.

Compound	melting point [°C]	also measured
COc1ccc(C2(CNC(=O)[C@](C)(Cc3c[nH]c4ccccc34)Nc3nc(-c4ccc([N+](=O)[O-])cc4)co3)CCCCC2)nc1 [Example 1, (S)-3-(1H-Indol-3-yl)-N-[1-(5-methoxy-pyridin-2-yl)-cyclohexylmethyl]-2-methyl-2-[4-(4-nitro-phenyl)-oxazol-2-ylamino]-propionamide]	100 to 105	lordosis quotient (LQ) versus before administration ([1]; PEG 200, single oral administration, 10-100 mg/kg, 1 h after administration): increased; difference in the percentage of time spent investigating the male stimuli minus female stimuli ([2]; 0.5% methyl cellulose, p.o., 3-30 mg/kg): increased; MED, difference in percentage of time spent investigating male minus female stimuli ([2]; 0.5% methyl cellulose, p.o.): 10 mg/kg; difference in the percentage of time spent investigating the male stimuli minus female stimuli ([2]; PEG 200 vehicle, oral, 30-100 mg/kg): increased; MED, difference in percentage of time spent investigating male minus female stimuli ([2]; PEG 200 vehicle, oral): 100 mg/kg; increase in potency in methyl cellulose compared to PEG 200 vehicle ([2]; oral, MED 10 vs 100 mg/kg): 10 fold
COCC1(CNC(=O)[C@](C)(Cc2c[nH]c3ccccc23)Nc2nc(-c3ccc([N+](=O)[O-])cc3)co2)CCCCC1 [Example 2, (S)-3-(1H-Indol-3-yl)-N-(1-methoxymethyl-cyclohexylmethyl)-2-methyl-2-[4-(4-nitro-phenyl)-oxazol-2-ylamino]-propionamide]	189 to 192	–
C[C@@](Cc1c[nH]c2ccccc12)(Nc1nc(-c2ccc([N+](=O)[O-])cc2)co1)C(=O)NCC(=O)c1ccccc1 [Example 3, (S)-3-(1H-Indol-3-yl)-2-methyl-2-[4-(4-nitro-phenyl)-oxazol-2-ylamino]-N-(2-oxo-2-phenyl-ethyl)-propionamide]	80 to 90	–
COc1ccc(C2(CNC(=O)[C@](C)(Cc3c[nH]c4ccccc34)Nc3nc(-c4ccc(C#N)cc4)co3)CCCCC2)nc1 [Example 5, (S)-2-[4-(4-Cyano-phenyl)-oxazol-2-ylamino]-3-(1H-indol-3-yl)-N-[1-(5-methoxy-pyridin-2-yl)-cyclohexylmethyl]-2-methyl-propionamide]	105 to 108	–
COc1ccc(C2(CNC(=O)[C@](C)(Cc3c[nH]c4ccccc34)Nc3nc(-c4ccccc4)co3)CCCCC2)nc1 [Example 6, (S)-3-(1H-Indol-3-yl)-N-[1-(5-methoxy-pyridin-2-yl)-cyclohexylmethyl]-2-methyl-2-(4-phenyl-oxazol-2-ylamino)-propionamide]	85 to 90	–
CCc1coc(N[C@@](C)(Cc2c[nH]c3ccccc23)C(=O)NCC2(c3ccc(OC)cn3)CCCCC2)n1 [Example 7, (S)-2-(4-Ethyl-oxazol-2-ylamino)-3-(1H-indol-3-yl)-N-[1-(5-methoxy-pyridin-2-yl)-cyclohexylmethyl]-2-methyl-propionamide]	60 to 65	–
COc1ccc(C2(CNC(=O)[C@](C)(Cc3c[nH]c4ccccc34)Nc3nc(-c4ccc([N+](=O)[O-])cc4)cs3)CCCCC2)nc1 [Example 8, (S)-3-(1H-Indol-3-yl)-N-[1-(5-methoxy-pyridin-2-yl)-cyclohexylmethyl]-2-methyl-2-[4-(4-nitro-phenyl)-thiazol-2-ylamino]-propionamide]	110 to 114	–
C[C@@](Cc1c[nH]c2ccccc12)(Nc1nc2ccccc2o1)C(=O)NCC1(c2ccccn2)CCCCC1 [Example 9, (S)-2-(Benzooxazol-2-ylamino)-3-(1H-indol-3-yl)-2-m thyl-N-(1-pyridin-2-yl-cyclohxylmethyl)-propionamide]	198 to 200	–
C[C@@](Cc1c[nH]c2ccccc12)(Nc1ccncc1)C(=O)NCC1(c2ccccn2)CCCCC1 [Example 10, (S)-3-(1H-Indol-3-yl)-2-methyl-2-(pyridin-4-ylamino)-N-(1-pyridin-2-yl-cyclohexylmethyl)-propionamide]	180 to 195	–
C[C@@](Cc1c[nH]c2ccccc12)(Nc1cncc2ccccc12)C(=O)NCC1(c2ccccn2)CCCCC1 [Example 11, (S)-3-(1H-Indol-3-yl)-2-(isoquinolin-4-ylamino)-2-methyl-N-(1-pyridin-2-yl-cyclohexylmethyl)-propionamide]	98 to 101	–
C[C@@](Cc1c[nH]c2ccccc12)(Nc1cncnc1)C(=O)NCC1(c2ccccn2)CCCCC1 [Example 12, (S)-3-(1H-Indol-3-yl)-2-methyl-N-(1-pyridin-2-yl-cyclohexylmethyl)-2-(pyrimidin-5-ylamino)-propionamide]	95 to 98	–
Cc1cccc(N[C@@](C)(Cc2c[nH]c3ccccc23)C(=O)NCC2(c3ccccn3)CCCCC2)c1 [Example 14, (S)-3-(1H-Indol-3-yl)-2-methyl-N-(1-pyridin-2-yl-cyclohexylmethyl)-2-m-tolylamino-propionamide]	70 to 75	–
C[C@@](Cc1c[nH]c2ccccc12)(NCc1ccc([N+](=O)[O-])cc1)C(=O)NCC1(c2ccccn2)CCCCC1 [Example 19, (S)-3-(1H-Indol-3-yl)-2-methyl-2-(4-nitro-benzylamino)-N-(1-pyridin-2-yl-cyclohexylmethyl)-propionamide]	58 to 60	–
CC(=O)[C@H]1CC[C@H]2[C@@H]3CCC4=CC(=O)CC[C@]4(C)[C@H]3CC[C@]12C [progesterone, reference compound]	–	effect on proceptivity (positive control) ([2]; 0.5 mg/0.1 ml in corn oil s.c., 4 h before test): maximal
CCCN1CCC[C@@H]2Cc3nc(N)ncc3C[C@H]21 [quinelorane, Quinelorane dihydrochloride, reference compound]	–	lordosis quotient (LQ) versus before administration ([1]; 6.25 μg/kg s.c. in water, 90 min after administration): significantly (P<0.01) increased
